Data taken from ChEMBL document CHEMBL3588787, “Identification of Jumonji AT-Rich Interactive Domain 1A Inhibitors and Their Effect on Cancer Cells” (ACS Med Chem Lett, 2015).
pIC50: −log10 of the molar value.

biological target: Lysine-specific demethylase 5A (Homo sapiens, UniProt P29375); assay: Inhibition of JARID1A (unknown origin) using biotinylated […] peptide after 60 mins by Alpha screen assay
Sequence (P29375 whole entry): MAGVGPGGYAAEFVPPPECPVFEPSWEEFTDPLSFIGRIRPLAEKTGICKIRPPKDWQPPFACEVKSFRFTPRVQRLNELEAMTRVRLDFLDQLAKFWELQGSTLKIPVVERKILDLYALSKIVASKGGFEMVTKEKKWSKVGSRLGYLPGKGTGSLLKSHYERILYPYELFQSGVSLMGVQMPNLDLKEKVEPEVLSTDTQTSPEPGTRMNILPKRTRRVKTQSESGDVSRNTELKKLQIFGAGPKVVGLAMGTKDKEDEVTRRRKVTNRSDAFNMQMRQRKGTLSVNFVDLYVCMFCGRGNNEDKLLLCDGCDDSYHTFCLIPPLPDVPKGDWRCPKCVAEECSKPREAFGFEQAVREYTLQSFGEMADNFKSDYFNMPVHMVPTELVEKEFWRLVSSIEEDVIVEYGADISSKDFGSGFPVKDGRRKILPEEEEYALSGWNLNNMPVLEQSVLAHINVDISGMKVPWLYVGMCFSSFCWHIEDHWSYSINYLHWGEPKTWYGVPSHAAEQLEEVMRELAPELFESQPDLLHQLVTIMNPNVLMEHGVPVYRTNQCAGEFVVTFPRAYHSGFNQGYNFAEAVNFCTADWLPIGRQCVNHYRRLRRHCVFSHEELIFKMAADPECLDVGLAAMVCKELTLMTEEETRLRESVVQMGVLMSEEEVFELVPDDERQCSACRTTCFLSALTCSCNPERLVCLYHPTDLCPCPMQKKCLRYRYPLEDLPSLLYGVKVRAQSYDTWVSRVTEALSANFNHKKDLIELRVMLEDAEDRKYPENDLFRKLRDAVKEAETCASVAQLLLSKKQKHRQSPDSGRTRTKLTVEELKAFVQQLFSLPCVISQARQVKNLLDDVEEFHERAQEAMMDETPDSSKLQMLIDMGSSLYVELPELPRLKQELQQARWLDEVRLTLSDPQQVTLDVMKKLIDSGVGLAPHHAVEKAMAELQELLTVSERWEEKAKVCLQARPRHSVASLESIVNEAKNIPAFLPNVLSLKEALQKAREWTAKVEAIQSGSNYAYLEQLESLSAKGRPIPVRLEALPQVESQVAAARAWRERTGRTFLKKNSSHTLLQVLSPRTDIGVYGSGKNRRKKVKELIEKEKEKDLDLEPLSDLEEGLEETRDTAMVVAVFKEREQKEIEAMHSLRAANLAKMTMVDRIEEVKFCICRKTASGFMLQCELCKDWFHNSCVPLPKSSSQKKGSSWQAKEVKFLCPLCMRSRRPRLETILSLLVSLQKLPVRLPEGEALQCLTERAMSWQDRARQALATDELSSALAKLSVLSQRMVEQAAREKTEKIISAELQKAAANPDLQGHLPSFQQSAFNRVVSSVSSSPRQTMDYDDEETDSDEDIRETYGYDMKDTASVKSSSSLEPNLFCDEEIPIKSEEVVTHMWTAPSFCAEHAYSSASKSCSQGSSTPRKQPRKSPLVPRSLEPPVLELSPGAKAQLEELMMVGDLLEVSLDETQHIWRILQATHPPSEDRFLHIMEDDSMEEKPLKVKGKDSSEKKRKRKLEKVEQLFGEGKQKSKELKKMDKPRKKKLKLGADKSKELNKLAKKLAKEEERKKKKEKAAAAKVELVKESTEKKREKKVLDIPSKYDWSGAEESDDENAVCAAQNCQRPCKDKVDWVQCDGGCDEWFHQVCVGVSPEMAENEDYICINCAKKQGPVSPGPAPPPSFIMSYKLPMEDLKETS

Structure (SMILES)	pIC50
CN(C)CCCCC(=O)N(O)CCC(=O)O	4.74
CCCCCCCCN(CCCC)CCCCC(=O)N(O)CCC(=O)O	5.51
CCCCN(C)CCC(=O)N(O)CCC(=O)O	4.28
CCCN(C)CCCCC(=O)N(O)CCC(=O)O	5.05
CCCCN(C)CCCCCCC(=O)N(O)CCC(=O)O	5.74
CCN(C)CCCCC(=O)N(O)CCC(=O)O	5.11
CCCCCCN(CCCC)CCCCC(=O)N(O)CCC(=O)O	5.35
CCCCN(C)CCCCCC(=O)N(O)CCC(=O)O	5.40
CCCCN(C)CCCCC(=O)N(O)CCC(=O)O	5.37
CCCCN(CC)CCCCC(=O)N(O)CCC(=O)O	4.85

biological target: Histone lysine demethylase PHF8 (Homo sapiens, UniProt Q9UPP1); assay: Inhibition of JHDM1F (unknown origin) using H3K9mel peptide
Sequence (Q9UPP1 whole entry): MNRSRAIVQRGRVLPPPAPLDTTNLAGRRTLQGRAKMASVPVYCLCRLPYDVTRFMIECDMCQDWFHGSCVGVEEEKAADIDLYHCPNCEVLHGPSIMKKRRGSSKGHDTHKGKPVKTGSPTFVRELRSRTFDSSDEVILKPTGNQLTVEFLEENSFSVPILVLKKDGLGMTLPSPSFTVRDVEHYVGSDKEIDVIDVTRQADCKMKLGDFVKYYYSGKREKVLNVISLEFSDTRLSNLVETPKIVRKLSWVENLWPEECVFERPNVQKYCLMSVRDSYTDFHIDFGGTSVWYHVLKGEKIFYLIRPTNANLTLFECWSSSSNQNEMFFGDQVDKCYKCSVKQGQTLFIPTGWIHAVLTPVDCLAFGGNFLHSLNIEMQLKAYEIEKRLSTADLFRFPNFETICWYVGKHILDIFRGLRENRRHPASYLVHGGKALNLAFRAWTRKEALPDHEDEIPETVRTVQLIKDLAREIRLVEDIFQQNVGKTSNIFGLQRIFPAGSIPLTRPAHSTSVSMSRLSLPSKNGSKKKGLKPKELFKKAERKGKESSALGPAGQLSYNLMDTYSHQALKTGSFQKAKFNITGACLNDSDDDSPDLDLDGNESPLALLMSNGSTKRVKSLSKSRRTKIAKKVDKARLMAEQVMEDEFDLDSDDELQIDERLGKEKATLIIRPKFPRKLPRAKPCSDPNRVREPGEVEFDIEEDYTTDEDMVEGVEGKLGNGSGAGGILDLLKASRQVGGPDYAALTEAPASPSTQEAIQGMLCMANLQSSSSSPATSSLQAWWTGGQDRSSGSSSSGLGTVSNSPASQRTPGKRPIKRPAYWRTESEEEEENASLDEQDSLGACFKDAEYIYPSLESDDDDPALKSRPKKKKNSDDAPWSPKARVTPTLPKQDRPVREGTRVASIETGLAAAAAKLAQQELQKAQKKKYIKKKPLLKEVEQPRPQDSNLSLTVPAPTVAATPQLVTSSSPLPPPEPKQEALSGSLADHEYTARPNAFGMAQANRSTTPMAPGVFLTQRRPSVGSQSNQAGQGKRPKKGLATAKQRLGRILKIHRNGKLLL

Structure (SMILES)	pIC50
CCCCCCCCN(CCCC)CCCCC(=O)N(O)CCC(=O)O	4.62
CCCCCCN(CCCC)CCCCC(=O)N(O)CCC(=O)O	4.54
CCCCN(C)CCCCCC(=O)N(O)CCC(=O)O	4.24
CCCCN(C)CCCCC(=O)N(O)CCC(=O)O	< 4.00

biological target: T1, Lysine-specific demethylase 4C (Homo sapiens, UniProt Q9H3R0); assay: Inhibition of JMJD2C (unknown origin) using H3K9mel peptide
T1 sequence (Q9H3R0 whole entry): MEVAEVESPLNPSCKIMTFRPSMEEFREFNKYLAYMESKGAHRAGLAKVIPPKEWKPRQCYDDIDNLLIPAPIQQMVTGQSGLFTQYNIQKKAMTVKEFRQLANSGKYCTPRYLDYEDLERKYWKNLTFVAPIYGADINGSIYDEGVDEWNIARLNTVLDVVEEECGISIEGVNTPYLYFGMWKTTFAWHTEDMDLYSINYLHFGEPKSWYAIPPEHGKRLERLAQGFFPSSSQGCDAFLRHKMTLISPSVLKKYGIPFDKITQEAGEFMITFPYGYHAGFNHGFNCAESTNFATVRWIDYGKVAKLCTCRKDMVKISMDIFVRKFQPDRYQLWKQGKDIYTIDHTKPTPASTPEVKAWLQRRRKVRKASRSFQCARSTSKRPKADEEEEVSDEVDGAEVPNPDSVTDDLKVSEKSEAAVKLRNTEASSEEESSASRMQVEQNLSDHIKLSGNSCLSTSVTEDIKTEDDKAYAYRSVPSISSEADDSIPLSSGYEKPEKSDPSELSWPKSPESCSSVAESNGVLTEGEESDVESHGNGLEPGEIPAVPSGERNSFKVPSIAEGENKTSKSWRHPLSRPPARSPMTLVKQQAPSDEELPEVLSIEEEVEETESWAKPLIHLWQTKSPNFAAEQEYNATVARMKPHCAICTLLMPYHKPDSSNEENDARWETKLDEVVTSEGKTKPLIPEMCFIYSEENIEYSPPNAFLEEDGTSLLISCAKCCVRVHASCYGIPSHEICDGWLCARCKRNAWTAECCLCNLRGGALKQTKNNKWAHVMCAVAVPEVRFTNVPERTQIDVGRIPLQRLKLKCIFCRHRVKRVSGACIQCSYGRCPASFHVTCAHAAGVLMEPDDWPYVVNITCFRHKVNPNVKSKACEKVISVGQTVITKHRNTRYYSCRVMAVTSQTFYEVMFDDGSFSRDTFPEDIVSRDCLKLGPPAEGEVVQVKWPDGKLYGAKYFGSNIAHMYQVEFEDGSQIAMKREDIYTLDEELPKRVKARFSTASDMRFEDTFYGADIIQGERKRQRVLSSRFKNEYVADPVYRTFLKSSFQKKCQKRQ

Structure (SMILES)	pIC50
CN(C)CCCCC(=O)N(O)CCC(=O)O	4.29
CCCCCCCCN(CCCC)CCCCC(=O)N(O)CCC(=O)O	4.08
CCCCN(C)CCC(=O)N(O)CCC(=O)O	< 4.00
CCCN(C)CCCCC(=O)N(O)CCC(=O)O	4.12
CCCCN(C)CCCCCCC(=O)N(O)CCC(=O)O	5.19
CCN(C)CCCCC(=O)N(O)CCC(=O)O	4.21
CCCCCCN(CCCC)CCCCC(=O)N(O)CCC(=O)O	< 4.00
CCCCN(C)CCCCCC(=O)N(O)CCC(=O)O	4.21
CCCCN(C)CCCCC(=O)N(O)CCC(=O)O	4.26
CCCCN(CC)CCCCC(=O)N(O)CCC(=O)O	4.19

biological target: T2, Lysine-specific demethylase 3A (Homo sapiens, UniProt Q9Y4C1); assay: Inhibition of JMJD1A (unknown origin) using H3K9mel peptide
T2 sequence (Q9Y4C1 whole entry): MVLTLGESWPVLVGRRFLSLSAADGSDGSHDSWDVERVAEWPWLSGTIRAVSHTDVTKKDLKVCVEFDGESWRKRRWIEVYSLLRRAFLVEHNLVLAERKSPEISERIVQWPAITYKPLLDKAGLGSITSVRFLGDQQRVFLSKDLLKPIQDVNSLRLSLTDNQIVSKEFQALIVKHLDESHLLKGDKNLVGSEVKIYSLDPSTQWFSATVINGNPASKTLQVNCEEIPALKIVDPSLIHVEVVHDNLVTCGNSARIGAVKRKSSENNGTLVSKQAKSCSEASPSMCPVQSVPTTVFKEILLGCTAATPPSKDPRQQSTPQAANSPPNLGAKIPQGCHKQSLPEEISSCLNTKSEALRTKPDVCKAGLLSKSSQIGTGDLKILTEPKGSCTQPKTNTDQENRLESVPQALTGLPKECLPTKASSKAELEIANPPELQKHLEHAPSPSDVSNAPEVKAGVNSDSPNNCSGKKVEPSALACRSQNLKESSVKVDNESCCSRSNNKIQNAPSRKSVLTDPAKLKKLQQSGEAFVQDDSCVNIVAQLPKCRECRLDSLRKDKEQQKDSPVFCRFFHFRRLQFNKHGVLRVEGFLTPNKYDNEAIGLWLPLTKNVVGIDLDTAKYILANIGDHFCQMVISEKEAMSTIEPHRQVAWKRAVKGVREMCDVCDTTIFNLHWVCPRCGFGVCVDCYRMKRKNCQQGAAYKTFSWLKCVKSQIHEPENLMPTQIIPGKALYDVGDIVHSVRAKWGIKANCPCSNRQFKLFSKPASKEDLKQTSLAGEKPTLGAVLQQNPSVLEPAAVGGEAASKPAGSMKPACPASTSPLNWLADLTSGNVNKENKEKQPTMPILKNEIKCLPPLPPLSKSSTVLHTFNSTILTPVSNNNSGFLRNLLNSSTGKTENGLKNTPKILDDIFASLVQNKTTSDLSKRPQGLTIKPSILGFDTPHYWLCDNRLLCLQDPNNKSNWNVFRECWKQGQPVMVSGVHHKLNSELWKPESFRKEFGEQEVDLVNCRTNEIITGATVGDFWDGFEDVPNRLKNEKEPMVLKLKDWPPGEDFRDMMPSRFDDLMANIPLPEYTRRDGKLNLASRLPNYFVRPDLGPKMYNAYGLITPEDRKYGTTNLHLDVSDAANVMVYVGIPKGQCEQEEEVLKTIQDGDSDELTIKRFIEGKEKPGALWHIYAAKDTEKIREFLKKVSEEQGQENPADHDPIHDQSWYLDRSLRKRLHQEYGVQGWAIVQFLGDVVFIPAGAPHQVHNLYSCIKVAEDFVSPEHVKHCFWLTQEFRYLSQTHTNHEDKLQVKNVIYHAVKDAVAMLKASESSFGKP

Structure (SMILES)	pIC50
CCCCCCCCN(CCCC)CCCCC(=O)N(O)CCC(=O)O	< 4.00
CCCCCCN(CCCC)CCCCC(=O)N(O)CCC(=O)O	< 4.00
CCCCN(C)CCCCC(=O)N(O)CCC(=O)O	< 4.00
